The results in this text go back to patent publication US8568784B2, “Nanoparticles for delivery of active agents” (Morehouse School of Medicine, priority 2006, dated 2013).

A short description of this data set: Percent entrapment and loading studies of particles. Format: physicochemical. To be noted: entrapped in PCL-XP particles.
Regarding `O=S(=O)([O-])c1cc(S(=O)(=O)Cl)ccc1C1=c2cc3c4c(c2Oc2c1cc1c5c2CCCN5CCC1)CCC[N+]=4CCC3` [TR, Texas Red], the entrapment efficiency is recorded as approximately 100% and the “loading per weight of the particles” value is approximately 20%.

Turning to `N.N.[Cl][Pt][Cl]` [cisplatin], the entrapment efficiency was approximately 100% and the “loading per weight of the particles” value was approximately 20%.

Turning to `[Gd]` [gadolinium], the entrapment efficiency is on record as approximately 100% and the “loading per weight of the particles” value is approximately 20%.
